Measurements: patent US11149019B2, “Phenylpyridine derivative and pharmaceutical composition comprising the same” (Daewoong Pharmaceutical Co., Ltd., priority 2017, dated 2021)

Legend:
ITK = target: T1, ITK (Homo sapiens, UniProt Q08881); experiment: ADP-Glo + ITK Kinase enzyme system kit, inhibitory activity against ITK; type: biochemical; conditions: ITK enzyme 0.4 ng/ul, ATP final concentration of 25 ul, 30° C. for 1 hour, luminescence, duplicate
T1 construct: purchased Promega Corporation
T1 sequence (Q08881 1-620): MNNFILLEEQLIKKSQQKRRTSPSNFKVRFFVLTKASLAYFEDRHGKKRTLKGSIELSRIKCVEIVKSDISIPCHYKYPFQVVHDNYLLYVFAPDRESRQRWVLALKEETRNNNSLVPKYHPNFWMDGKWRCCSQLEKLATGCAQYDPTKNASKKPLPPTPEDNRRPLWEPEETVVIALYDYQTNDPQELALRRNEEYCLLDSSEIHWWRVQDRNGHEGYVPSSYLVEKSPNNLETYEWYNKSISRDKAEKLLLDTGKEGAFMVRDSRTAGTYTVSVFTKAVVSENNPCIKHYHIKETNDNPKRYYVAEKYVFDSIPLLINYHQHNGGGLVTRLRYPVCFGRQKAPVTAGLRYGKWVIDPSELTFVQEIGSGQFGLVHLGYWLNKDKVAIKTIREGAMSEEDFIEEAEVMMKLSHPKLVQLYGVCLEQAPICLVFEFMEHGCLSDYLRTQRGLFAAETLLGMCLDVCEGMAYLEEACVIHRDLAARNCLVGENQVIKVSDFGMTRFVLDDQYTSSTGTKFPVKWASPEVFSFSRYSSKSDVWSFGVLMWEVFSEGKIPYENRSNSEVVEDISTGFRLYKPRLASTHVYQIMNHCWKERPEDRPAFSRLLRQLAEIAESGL
Description: (§1) Inhibitory activities against BTK and ITK were measured for the compounds prepared in the above Examples as follows.
The inhibitory activity against ITK was evaluated using ‘ADP-Glo™+ITK Kinase enzyme system’ kit (Promega Corporation). In a white 96-well plate, 10 ul of ITK enzyme prepared so as to have a final concentration of 0.4 ng/ul was mixed with 5 ul of compounds having a final concentration of 1 uM in the case of evaluating a single concentration of compound and a concentration of 1000, 300, 100, 30, 10, 3, 1, 0.3, 0.1 and 0.03 nM in the case of IC50 evaluation, and then reacted at room temperature for 15 minutes. To the plate on which reactions were completed, 5 ul of substrate and 5 ul of ATP prepared so as to have a final concentration of […] added and then allowed to react at 30° C. for 1 hour. All wells of the plate were treated with 25 ul of ADP-Glo™ reagent and then allowed to react at 30° C. for 40 minutes. After that, all wells were treated with 50 ul of kinase detection buffer, and then allowed to react at 30° C. for 30 minutes under light shielding conditions. For the plate on which all reactions were completed, luminescence was measured and the results were calculated. Evaluation was carried out in duplicate, and negative control and positive control were calculated depending on whether or not the enzyme was added without treatment of the compound. The IC50 was calculated based on the calculated values.

BTK = target: T2, BTK (Homo sapiens, UniProt Q06187); experiment: ADP-Glo + BTK Kinase enzyme system kit, inhibitory activity against BTK; type: biochemical; conditions: BTK enzyme 1 ng/ul, ATP 10 μM, 30° C. for 1 hour, luminescence, duplicate
T2 construct: purchased Promega Corporation
Description: as §1
The inhibitory activities against BTK were evaluated using ‘ADP-Glo™+BTK Kinase enzyme system’ kit (Promega Corporation). In a white 96-well plate, 10 ul of BTK enzyme prepared so as to have a final concentration of 1 ng/ul was mixed with 5 μl of compounds having a final concentration of […] the case of evaluating a single concentration of compound and a concentration of 1000, 300, 100, 30, 10, 3, 1, 0.3, 0.1 and 0.03 nM in the case of IC50 evaluation, and then reacted at room temperature for 15 minutes. 5 ul of substrate and 5 ul of ATP prepared so as to have a final concentration of 10 μM were added to the plate on which reactions were completed, and then allowed to react at 30° C. for 1 hour. All wells of the plate were treated with 25 ul of ADP-Glo™ reagent and allowed to react at 30° C. for 40 minutes. After that, all wells were treated with 50 ul of kinase detection buffer, and then reacted at 30° C. for 30 minutes under light shielding conditions. For the plate on which all reactions were completed, luminescence was measured and the results were calculated. Evaluation was carried out in duplicate, and negative control and positive control were calculated depending on whether or not the enzyme was added without treatment of the compound. The IC50 was calculated based on the calculated values.

T2 sequence (Q06187 whole entry): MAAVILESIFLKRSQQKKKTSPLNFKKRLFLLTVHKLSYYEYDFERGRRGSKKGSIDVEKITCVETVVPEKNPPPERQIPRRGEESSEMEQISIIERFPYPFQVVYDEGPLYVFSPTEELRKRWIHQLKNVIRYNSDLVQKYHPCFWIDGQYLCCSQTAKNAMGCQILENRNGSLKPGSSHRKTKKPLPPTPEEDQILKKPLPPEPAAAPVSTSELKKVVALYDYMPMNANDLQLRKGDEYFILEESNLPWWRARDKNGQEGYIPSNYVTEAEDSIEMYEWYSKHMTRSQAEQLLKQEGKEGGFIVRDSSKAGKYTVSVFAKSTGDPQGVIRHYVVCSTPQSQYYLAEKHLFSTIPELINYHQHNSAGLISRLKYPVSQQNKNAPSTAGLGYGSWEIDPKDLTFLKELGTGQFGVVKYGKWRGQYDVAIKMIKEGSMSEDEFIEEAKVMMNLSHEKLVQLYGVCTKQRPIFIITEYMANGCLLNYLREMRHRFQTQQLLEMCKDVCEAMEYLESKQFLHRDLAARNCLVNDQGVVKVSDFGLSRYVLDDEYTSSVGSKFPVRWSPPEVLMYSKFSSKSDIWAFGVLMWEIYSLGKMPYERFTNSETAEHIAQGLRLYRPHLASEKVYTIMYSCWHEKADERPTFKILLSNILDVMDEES

Structure (SMILES)	IC50 (ITK)	IC50 (BTK)
C=CC(=O)Nc1cccc(-c2cc(C(=O)N3CCOCC3)cc(Nc3cc(C4CC4)[nH]n3)n2)c1 [Compound 28, N-(3-(6-(5-cyclopropyl-1H-pyrazol-3-ylamino)-4-(morpholine-4-carbonyl)pyridin-2-yl)phenyl)acrylamide]	0.0681 µM	0.31 µM
C=CC(=O)Nc1cccc(-c2cc(N(C)C)cc(Nc3ncc(C)s3)n2)c1 [Compound 35, N-(3-(4-(dimethylamino)-6-((5-methylthiazol-2-yl)amino)pyridin-2-yl)phenyl)acrylamide]	> 1 µM	> 0.4 µM
C=CC(=O)Nc1cccc(-c2cc(Cc3ccccc3)cc(Nc3cc(C(C)c4ccc(C)cc4)[nH]n3)n2)c1 (centres unmarked) [Compound 9]	> 1 µM	> 1 µM
C=CC(=O)Nc1cccc(-c2cc(C(=O)N3CCOCC3)cc(Nc3ncc(C)s3)n2)c1 [Compound 29, N-(3-(6-((5-methylthiazol-2-yl)amino)-4-(morpholine-4-carbonyl)pyridin-2-yl)phenyl)acrylamide]	0.0186 µM	0.0052 µM
C=CC(=O)Nc1ccc(-c2cc(Cc3ccccc3)cc(Nc3cc(C)[nH]n3)n2)cc1 [Compound 1, N-(4-(4-benzyl-6-(5-methyl-1H-pyrazol-3-ylamino)pyridin-2-yl)phenyl)acrylamide]	0.289 µM	> 1 µM
C=CC(=O)Nc1cccc(-c2cc(C(=O)N(C)C)cc(Nc3cc(C)[nH]n3)n2)c1 [Compound 21, 2-(3-acrylamidophenyl)-N,N-dimethyl-6-((5-methyl-1H-pyrazol-3-yl)amino)isonicotinamide]	> 0.5 µM	0.0526 µM
C=CC(=O)Nc1cccc(-c2cc(C(F)(F)F)cc(Nc3cc(C)[nH]n3)n2)c1 [Compound 17]	0.131 µM	0.0111 µM
C=CC(=O)Nc1cccc(-c2cc(CNC(C)C(C)(C)C)cc(Nc3cc(C)[nH]n3)n2)c1 (centres unmarked) [Compound 19]	> 0.5 µM	0.0747 µM
C#CC(=O)Nc1ccc(-c2cc(Cc3ccccc3)cc(Nc3cc(C)[nH]n3)n2)cc1 [Compound 3, N-(4-(4-benzyl-6-((5-methyl-1H-pyrazol-3-yl)amino)pyridin-2-yl)phenyl)propiolamide]	0.0235 µM	0.0459 µM
C=CC(=O)Nc1cccc(-c2cc(C)cc(Nc3ccccn3)n2)c1 [Compound 18, N-(3-(4-methyl-6-(pyridin-2-ylamino)pyridin-2-yl)phenyl)acrylamide]	> 1 µM	0.0287 µM
C=CC(=O)Nc1cccc(-c2cc(C)cc(Nc3cc(CC)[nH]n3)n2)c1 [Compound 24, N-(3-(6-(5-ethyl-1H-pyrazol-3-ylamino)-4-methylpyridin-2-yl)phenyl)acrylamide]	0.159 µM	0.0109 µM
C=CC(=O)Nc1cccc(-c2cc(N3CCOCC3)cc(Nc3ncc(C)s3)n2)c1 [Compound 36, N-(3-(6-((5-methylthiazol-2-yl)amino)-4-morpholinopyridin-2-yl)phenyl)acrylamide]	0.394 µM	> 0.1 µM
C=CC(=O)Nc1cccc(-c2cc(C)cc(Nc3cc(C)[nH]n3)n2)c1 [Compound 16, N-(3-(4-methyl-6-(5-methyl-1H-pyrazol-3-ylamino)pyridin-2-yl)phenyl)acrylamide]	0.192 µM	0.0061 µM

Next, values leading:

IC50 (ITK)	IC50 (BTK)	Structure (SMILES)
0.0042 µM	0.0018 µM	C=CC(=O)Nc1cc(-c2cc(CN3CCOCC3)cc(Nc3ncc(C)s3)n2)ccc1F [Compound 56, N-(2-fluoro-5-(6-((5-methylthiazol-2-yl)amino)-4-(morpholinomethyl)pyridin-2-yl)phenyl)acrylamide]
> 1 µM	> 0.4 µM	C=CC(=O)Nc1cccc(-c2cc(CN3CCOCC3)cc(NC(=O)CC)n2)c1 [Compound 68, N-(3-(4-(morpholinomethyl)-6-propionamidopyridin-2-yl)phenyl)acrylamide]
0.0023 µM	0.0025 µM	C=CC(=O)Nc1cccc(-c2cc(Cc3cccnc3)cc(Nc3ncc(C)s3)n2)c1 [Compound 73, N-(3-(6-((5-methylthiazol-2-yl)amino)-4-(pyridin-3-ylmethyl)pyridin-2-yl)phenyl)acrylamide]
0.012 µM	0.002 µM	C=CC(=O)Nc1cccc(-c2cc(CN3CCOCC3)cc(Nc3ncns3)n2)c1 [Compound 44, N-(3-(6-((1,2,4-thiadiazol-5-yl)amino)-4-(morpholinomethyl)pyridin-2-yl)phenyl)acrylamide]
0.0022 µM	0.0019 µM	C=CC(=O)Nc1cccc(-c2cc(CN3CCN(C(C)=O)CC3)cc(Nc3ncc(C)s3)n2)c1 [Compound 60, N-(3-(4-((4-acetylpiperazin-1-yl)methyl)-6-(5-methylthiazol-2-ylamino)pyridin-2-yl)phenyl)acrylamide]
0.0157 µM	0.0181 µM	C=CC(=O)Nc1ccc(Cl)c(-c2cc(CN3CCOCC3)cc(Nc3ncc(C)s3)n2)c1 [Compound 64]
> 1 µM	> 0.4 µM	C=CC(=O)Nc1cccc(-c2cc(CN3CCOCC3)cc(NC(=O)C3CC3)n2)c1 [Compound 42, N-(6-(3-acrylamidophenyl)-4-(morpholinomethyl)pyridin-2-yl)cyclopropanecarboxamide]
0.0016 µM	0.0017 µM	C=CC(=O)Nc1cccc(-c2cc(CN3C[C@@H](C)O[C@@H](C)C3)cc(Nc3ncc(C)s3)n2)c1 [Compound 46, N-(3-(4-(((2S,6R)-2,6-dimethylmorpholino)methyl)-6-(5-methylthiazol-2-ylamino)pyridin-2-yl)phenyl)acrylamide]
0.008 µM	0.0033 µM	C=CC(=O)Nc1cccc(-c2cc(Cc3cccnc3)cc(Nc3cc(C)[nH]n3)n2)c1 [Compound 72, N-(3-(6-((5-methyl-1H-pyrazol-3-yl)amino)-4-(pyridin-3-ylmethyl)pyridin-2-yl)phenyl)acrylamide]
0.0037 µM	0.0013 µM	C=CC(=O)N(CC)c1cccc(-c2cc(CN3CCOCC3)cc(Nc3ncc(C)s3)n2)c1 [Compound 66, N-ethyl-N-(3-(6-(5-methylthiazol-2-ylamino)-4-(morpholinomethyl)pyridin-2-yl)phenyl)acrylamide]
0.0031 µM	0.0013 µM	C=CC(=O)Nc1cccc(-c2cc(CN3CCN(CCOC)CC3)cc(Nc3ncc(C)s3)n2)c1 [Compound 49, N-(3-(4-((4-(2-methoxyethyl)piperazin-1-yl)methyl)-6-(5-methylthiazol-2-ylamino)pyridin-2-yl)phenyl)acrylamide]
> 0.2 µM	0.0641 µM	C=CC(=O)Nc1cccc(-c2cc(CN3CCOCC3)cc(NC(=O)NC)n2)c1 [Compound 67, N-(3-(6-(3-methylureido)-4-(morpholinomethyl)pyridin-2-yl)phenyl)acrylamide]
0.0043 µM	0.0011 µM	C=CC(=O)Nc1cccc(-c2cc(CN3CCN(CCC)CC3)cc(Nc3ncc(C)s3)n2)c1 [Compound 48, N-(3-(6-((5-methylthiazol-2-yl)amino)-4-((4-propylpiperazin-1-yl)methyl)pyridin-2-yl)phenyl)acrylamide]
0.0081 µM	–	C=CC(=O)Nc1cccc(-c2cc(CN3CCN(C(=O)C(C)C)CC3)cc(Nc3ncc(C)s3)n2)c1 [Compound 62, N (3(4((4-isobutyrylpiperazin-1-yl)methyl)-6-(5-methylthiazol-2-ylamino)pyridin-2-yl)phenyl)acrylamide]
